Literature values in patent US6532437B1, “Crystalline frap complex” (Cornell Research Foundation, Inc., priority 1996, dated 2003).

Assays:
[1] = tested on: Chronic GVHD in BDF1 mice; details: BDF1 mice given DBA/2 spleen:lymph node cells
[2] = tested on: spontaneous SLE in MRL/lpr-mice

C[C@]12C=CC(=O)C=C1CC[C@@H]1[C@@H]2[C@@H](O)C[C@@]2(C)[C@H]1CC[C@]2(O)C(=O)CO [prednisolone]
activity in CGVHD model [1]: active

O=P1(N(CCCl)CCCl)NCCCO1 (centres unmarked) [cyclophosphamide]
activity in CGVHD model [1]: active
effect on course of disease [2]: can prevent and reverse the course of disease

Cc1oncc1C(=O)Nc1ccc(C(F)(F)F)cc1 [leflunomide]
activity in CGVHD model [1]: active
effect on course of disease [2]: can prevent and reverse the course of disease
